Reference: US4839355A, “Tricyclic-pyridinylquinoline compounds, their preparation and use” (Sterling Drug Inc., priority 1988, dated 1989)
≈ marks a conversion by molar mass, not a printed value. Where two headings read alike, the source gives them in different places.

Tests used:
[1] = test system: Micrococcus luteus; assay: In vitro antimicrobial activity, microplate dilution MIC, Micrococcus luteus; assay type: cell-based
Method: (§1) The in vitro antimicrobial activity of the compounds of the invention was determined by a microplate dilution procedure. Bacterial cultures were grown in Meuller Hintom II (cation supplemented) broth (S. aureus, S. faecalis, M. luteus, E. coli and P. aeruginosa), Brain Heart Infusion (BHI) broth supplemented with 10% heat inactivated horse serum (S. penumoniae) or BHI broth supplemented with 5 mcg/ml Hemin and 0.5 mcg/ml vitamin K (B. fragilis) at 37° C. for 18-24 hrs. The cultures were grown under aerobic conditions with the exception of B. fragilis which was grown 48 hrs. under anaerobic conditions (atmosphere 5% CO2, 10% H2 and 85% N2). Resulting suspensions were diluted 1/10 in the appropriate broth or used undiluted for the inoculum. Aqueous solutions of the compounds of the invention were solubilized in dimethylsulfoxide (DMSO) at the desired concentration and 200 mcl were dispensed into the first row of wells of a sterile microplate. The compounds were then serially diluted two-fold in DMSO to give a working stock concentration range plate. The last row of wells was left compound-free receiving only DMSO to serve as a growth control. Five mcl from each well of the working stock plate was transferred to corresponding wells of a separate plate containing 95 mcl/well of the appropriate broth. All dilutions were made with either an automated dilutor or manually. The wells of microplate containing the desired compound concentrations and compound-free growth controls in broth were then inoculated using the MIC 2000 inoculator which delivers 1.5 mcl/well to give a final inoculum level of 10^4 microorganism/well or 10^5 microorganism/ml. Plates were incubated as described above and read for visible growth. The minimal inhibitory concentration (MIC: expressed in mcg/ml) of each compound tested against each test microorganism was determined as the lowest concentration of compound which prevents visible microbial growth.

[2] = test system: Escherichia coli; assay: In vitro antimicrobial activity, microplate dilution MIC, Escherichia coli; assay type: cell-based
Method: as §1

[3] = test system: Staphylococcus aureus; assay: In vitro antimicrobial activity, microplate dilution MIC, Staphylococcus aureus; assay type: cell-based; settings: for MIC: Staphylococcus aureus, in vitro; for in vitro activity relative to compound P / in vitro activity relative to compound Q: from Table I MICs
Method: as §1

[4] = test system: Streptococcus faecalis; assay: In vitro antimicrobial activity, microplate dilution MIC, Streptococcus faecalis; assay type: cell-based; settings: Enterococcus faecalis
Method: as §1

[5] = test system: Streptococcus pneumoniae; assay: In vitro antimicrobial activity, microplate dilution MIC, Streptococcus pneumoniae; assay type: cell-based
Method: as §1

[6] = test system: Pseudomonas aeruginosa; assay: In vitro antimicrobial activity, microplate dilution MIC, Pseudomonas aeruginosa; assay type: cell-based; settings: 10^5 microorganism/ml, read-out: MIC (minimal inhibitory concentration), PA
Method: as §1

[7] = test system: Bacteroides fragilis; assay: In vitro antimicrobial activity, microplate dilution MIC, Bacteroides fragilis; assay type: cell-based
Method: as §1

[8] = test system: Staph. aureus; assay: In vivo antibacterial activity in female mice, Staph. aureus infection; parameters: species or system Staphylococcus aureus; settings: mouse; for ED50: Staphylococcus aureus, 168 h, one-half hour postinfection, deaths over seven days
Method: (§2) The in vivo antibacterial activity of the compounds of the invention was determined in female mice, 18-20 grams each. Aqueous solutions of the compounds to be tested were prepared by dissolving the free acid form in dilute sodium hydroxide and diluting the solution with distilled water to the desired concentration.
(§3) Cultures of E. coli were grown in brain heart infusion broth, and the mice were inoculated intraperitoneally with 0.5 ml of the bacterial test inoculum suspended in saline. Cultures of Staph. aureus were thawed from frozen pooled stocks and mixed with 5% mucin. A 0.5 ml preparation was used to infect mice by i.p. inoculation.
(§4) The mice were medicated subcutaneously (sc) or orally (po) with 0.5 ml of the test compound solution one-half hour postinfection. Deaths were recorded daily for seven days. Fifty percent protective dose values (PD50) were calculated using probit analyis.

[9] = test system: E. coli; assay: In vivo antibacterial activity in female mice, E. coli infection; parameters: species or system Escherichia coli; settings: mouse; for ED50: Escherichia coli, 168 h, one-half hour postinfection, deaths over seven days; for in vivo activity against E. coli compared with compounds P and Q: Table II
Method: as §2, §3, §4

[10] = test system: bacteria; assay: In vitro antimicrobial activity, overall comparison over the bacterial panel; assay type: cell-based; settings: for improved in vitro activity against named organisms / in vitro activity compared with prior art compounds P and Q: Table I MICs; for improved in vitro activity against named organisms: Staph. aureus, Strep. faecalis, Strep. pneumoniae
Method: as §1

[11] = Serum levels in monkeys after oral dosing; assay type: in vivo; settings: 25 mg/kg oral
[12] = 10^5 microorganism/ml, read-out: MIC (minimal inhibitory concentration), ML
[13] = 10^5 microorganism/ml, read-out: MIC (minimal inhibitory concentration), EC
[14] = 10^5 microorganism/ml, read-out: MIC (minimal inhibitory concentration), SA
[15] = Streptococcus faecalis, 10^5 microorganism/ml, read-out: MIC (minimal inhibitory concentration), SF
[16] = 10^5 microorganism/ml, 10% horse serum in BHI broth, read-out: MIC (minimal inhibitory concentration), SP
[17] = 10^5 microorganism/ml, anaerobic, read-out: MIC (minimal inhibitory concentration), BF
[18] = po, read-out: PD50 (fifty percent protective dose), Staph. aureus, po
[19] = sc, read-out: PD50 (fifty percent protective dose), Staph. aureus, sc
[20] = po, read-out: PD50 (fifty percent protective dose), E. coli, po
[21] = sc, read-out: PD50 (fifty percent protective dose), E. coli, sc
[22] = Strep. pneumoniae, read-out: MIC

Row | SMILES | MIC [1, 12] | MIC [2, 13] | MIC [3, 14] | MIC [4, 15] | MIC [5, 16] | MIC [6] | MIC [7, 17] | ED50 [8, 18] | ED50 [8, 19] | ED50 [9, 20] | ED50 [9, 21] | in vivo activity against E. coli compared with compounds P and Q [9] | other results
1 | CC[C@H]1COc2c(-c3cc(C)nc(C)c3)c(F)cc3c(=O)c(C(=O)O)cn1c23 [Compound C, (S)-10-(2,6-Dimethyl-4-pyridinyl)-9-fluoro-3-ethyl-7-oxo-2,3-dihydro-7H-pyrido[1,2,3-de][1,4]benzoxazine-6-carboxylic acid] | 0.5 µg/mL (≈ 1.31 µM) | 0.016 µg/mL (≈ 0.0418 µM) | < 0.004 µg/mL | 0.125 µg/mL (≈ 0.327 µM) | 0.06 µg/mL (≈ 0.157 µM) | 4 µg/mL (≈ 10.5 µM) | 0.5 µg/mL (≈ 1.31 µM) | 0.41 mg/kg | 0.2 mg/kg | 32.9 mg/kg | 8.8 mg/kg |  | more active than compound P against Staph. aureus ([8]; subcutaneous): fifteen; more active than compound Q against Staph. aureus ([8]; subcutaneous): three times more active; improved in vitro activity against named organisms [10]: improved activity against Staph. auerus, Strep. faecalis and Strip. pneumoniae
2 | Cc1cc(-c2c(F)c(SCc3ccccc3)c3c(=O)c(C(=O)O)cn4c3c2OC[C@@H]4C)cc(C)n1 [Example 4, (S)-8-(Benzylthio)-10-(2,6-dimethyl-4-pyridinyl)-9-fluoro-3-methyl-7-oxo-2,3-dihydro-7H-pyrido[1,2,3-de][1,4]-benzoxazine-6-carboxylic acid] |  |  |  |  |  |  |  |  |  |  |  |  | MIC ([1]; M. luteus, read-out: MIC): 32 µg/mL (≈ 65.2 µM); MIC ([2]; E. coli, read-out: MIC): 8 µg/mL (≈ 16.3 µM); MIC ([3]; Staph. aureus, read-out: MIC): 1 µg/mL (≈ 2.04 µM); MIC ([4]; Strep. faecalis, read-out: MIC): 32 µg/mL (≈ 65.2 µM); MIC [5, 22]: 8 µg/mL (≈ 16.3 µM); MIC ([7]; B. fragilis, read-out: MIC): 32 µg/mL (≈ 65.2 µM); antibacterial activity in vitro ([10]; in words): appreciable antibacterial activity in vitro
3 | Cc1cc(-c2c(F)cc3c(=O)c(C(=O)O)cn4c3c2OC[C@@H]4C)cc(C)n1 [B, (S)-10-(2,6-Dimethyl-4-pyridinyl)-9-fluoro-3-methyl-7-oxo-2,3-dihydro-7H-pyrido[1,2,3-de][1,4]benzoxazine-6-carboxylic acid] | 0.25 µg/mL (≈ 0.679 µM) | 0.03 µg/mL (≈ 0.0814 µM) | 0.008 µg/mL (≈ 0.0217 µM) | 0.06 µg/mL (≈ 0.163 µM) | 0.03 µg/mL (≈ 0.0814 µM) | 4 µg/mL (≈ 10.9 µM) | 0.25 µg/mL (≈ 0.679 µM) | 0.03 mg/kg | 0.02 mg/kg | 3 mg/kg | 1.4 mg/kg | approximately equal in activity to compound Q and slightly less active than compound P against E. coli | in vitro activity relative to compound P ([3]; Staph. aureus): thirty times as active as compound P; in vitro activity relative to compound Q ([3]; Staph. aureus): four times as active as compound Q; serum levels [11]: high and prolonged serum levels; half-life ([11]; monkey, serum): 16 h; Cmax ([11]; monkey, serum, read-out: maximum concentration (serum)): 25000 ng/mL; Tmax ([11]; monkey, serum, read-out: time of maximum concentration (serum)): 3.5 h; in vitro activity compared with prior art compounds P and Q [10]: substantilly more active than the prior art compounds (P and Q) against all of the organisms except E. coli and P. aeruginosa
4 | Cc1cc(-c2c(F)cc3c(=O)c(C(=O)O)cn4c3c2SC[C@@H]4C)cc(C)n1 [D, (S)-10-(2,6-Dimethyl-4-pyridinyl)-9-fluoro-3-methyl-7-oxo-2,3-dihydro-7H-pyrido[1,2,3-de][1,4]benzothiazine-6-carboxylic acid] | 0.06 µg/mL (≈ 0.156 µM) | 0.06 µg/mL (≈ 0.156 µM) | 0.004 µg/mL (≈ 0.0104 µM) | 0.06 µg/mL (≈ 0.156 µM) | 0.016 µg/mL (≈ 0.0416 µM) | 2 µg/mL (≈ 5.2 µM) | 0.06 µg/mL (≈ 0.156 µM) | 0.03 mg/kg | 0.03 mg/kg | 2.6 mg/kg | 1.5 mg/kg | approximately equal in activity to compound Q and slightly less active than compound P against E. coli | in vitro activity relative to compound P ([3]; Staph. aureus): sixty times as active as compound P; in vitro activity relative to compound Q ([3]; Staph. aureus): eight times as active as compound Q; in vitro activity compared with prior art compounds P and Q [10]: substantilly more active than the prior art compounds (P and Q) against all of the organisms except E. coli and P. aeruginosa
5 | Cc1cc(-c2c(F)c(F)c3c(=O)c(C(=O)O)cn4c3c2OC[C@@H]4C)cc(C)n1 [A, (S)-10-(2,6-Dimethyl-4-pyridinyl)-8,9-difluoro-3-methyl-7-oxo-2,3-dihydro-7H-pyrido[1,2,3-de][1,4]benzoxazine-6-carboxylic acid] | 1 µg/mL (≈ 2.59 µM) | 0.125 µg/mL (≈ 0.324 µM) | 0.016 µg/mL (≈ 0.0414 µM) | 0.125 µg/mL (≈ 0.324 µM) | 0.06 µg/mL (≈ 0.155 µM) | 8 µg/mL (≈ 20.7 µM) | 1 µg/mL (≈ 2.59 µM) | 0.13 mg/kg | 0.05 mg/kg | 12.3 mg/kg | 4.7 mg/kg | approximately equal in activity to compound Q and slightly less active than compound P against E. coli | improved in vitro activity against named organisms [10]: improved activity against Staph. auerus, Strep. faecalis and Strip. pneumoniae
6 | CC1COc2c(N3CCN(C)CC3)c(F)cc3c(=O)c(C(=O)O)cn1c23 (stereo not shown) [P, 9-Fluoro-3-methyl-10-(4-methyl-1-piperazinyl)-7-oxo-2,3-dihydro-7H-pyrido[1,2,3-de][1,4]benzoxazine-6-carboxylic acid, reference compound] | 2 µg/mL (≈ 5.53 µM) | 0.008 µg/mL (≈ 0.0221 µM) | 0.25 µg/mL (≈ 0.692 µM) | 2 µg/mL (≈ 5.53 µM) | 0.25 µg/mL (≈ 0.692 µM) | 0.5 µg/mL (≈ 1.38 µM) | 0.5 µg/mL (≈ 1.38 µM) | 6.5 mg/kg | 3 mg/kg | 1.17 mg/kg | 0.48 mg/kg |  | 
7 | CCOC(=O)c1cn2c3c(c(-c4cc(C)nc(C)c4)c(F)cc3c1=O)OC[C@H]2C [Example 6(e), Ethyl (R)-10-(2,6-dimethyl-4-pyridinyl)-9-fluoro-3-methyl-7-oxo-2,3-dihydro-7H-pyrido[1,2,3-de][1,4]benzoxazine-6-carboxylate] |  |  |  |  |  |  |  |  |  |  |  |  | MIC ([2]; E. coli, read-out: MIC): 1 µg/mL (≈ 2.52 µM); MIC ([3]; Staph. aureus, read-out: MIC): 0.25 µg/mL (≈ 0.631 µM); MIC ([4]; Strep. faecalis, read-out: MIC): 4 µg/mL (≈ 10.1 µM); MIC [5, 22]: 1 µg/mL (≈ 2.52 µM); MIC ([7]; B. fragilis, read-out: MIC): 16 µg/mL (≈ 40.4 µM); antibacterial activity in vitro ([10]; in words): substantial antibacterial activity in vitro; in vitro activity compared with the (S)-isomer (compound B) ([10]; in words): less active than the (S)-isomer (compound B)
8 | CCn1cc(C(=O)O)c(=O)c2cc(F)c(-c3cc(C)nc(C)c3)cc21 [Q, 7-(2,6-Dimethyl-4-pyridinyl)-1-ethyl-6-fluoro-1,4-dihydro-4-oxo-3-quinolinecarboxylic acid, reference compound] | 0.5 µg/mL (≈ 1.47 µM) | 0.06 µg/mL (≈ 0.176 µM) | 0.03 µg/mL (≈ 0.0881 µM) | 0.25 µg/mL (≈ 0.735 µM) | 0.25 µg/mL (≈ 0.735 µM) | 4 µg/mL (≈ 11.8 µM) | 2 µg/mL (≈ 5.88 µM) | 1.38 mg/kg | 0.71 mg/kg | 8.24 mg/kg | 5.39 mg/kg |  | 
